Literature values as cited in US20260183325A1, “SUSTAINED OR IMMEDIATE RELEASE ENERGY, MENTAL FOCUS, AND PHYSICAL RECOVERY NUTRITIONAL SUPPLEMENT BLEND, DIETARY SUPPLEMENT, FUNCTIONAL FOOD AND FUNCTIONAL BEVERAGE” (Matchstick Brands, LLC, priority 2023, published 2026).

Settings: during working memory processes (Koppelstatter et al. 2008)

In the case of `Cn1c(=O)c2c(ncn2C)n(C)c1=O` [caffeine], the “fMRI signal changes in a network of brain areas associated with executive and attentional functions” value is given as “increases”.
